The text below walks through data of the supplement of paper PMC3974653.

Structures can show the parent of a compound that is named as a salt.

The assay deals with MTT (mouse pheochromocytoma). Put plainly: IC50 of cell viability (ATP content). The following applies: (24 or 48 h). In short, it runs like this: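 MTT mouse pheochromocytoma cells (5 µl of 200,000 cells/ml per well, white 1536-well plates, DMEM with 5% FBS and 1% horse serum) were cultured overnight at 37°C, 5% CO2. They then received 23 nl library compound in DMSO by pintool at 8 concentrations (final 0.5 nM to 46 µM) for 24 or 48 hrs. CellTiter-Glo ATP luminescence was read after 15 minutes. Signals were normalised to positive-control (100% inhibition) and DMSO (0%) wells, and IC50 came from a four-parameter logistic fit.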

For `CC(C)NC[C@H](O)c1cc(O)cc(O)c1` [Metaproterenol sulfate, orciprenaline sulfate], the “IC50 of cell viability” value was more than 46 µM.

Take `CNC(=O)c1ccccc1Sc1ccc2c(/C=C/c3ccccn3)n[nH]c2c1` [Axitinib]: the “IC50 of cell viability” value is more than 46 µM.

As to `O=c1oc2c(O)c(O)cc3c(=O)oc4c(O)c(O)cc1c4c23` [ELLAGIC ACID], the “IC50 of cell viability” value was more than 46 µM.

With `O=C(O)CCC/C=C\C[C@@H]1[C@@H](/C=C/[C@@H](O)COc2cccc(C(F)(F)F)c2)[C@H](O)C[C@@H]1O` [Fluprostenol sodium], the “IC50 of cell viability” value is more than 46 µM.

For the molecule `CC1=C(C(=O)OCCN(Cc2ccccc2)c2ccccc2)C(c2cccc([N+](=O)[O-])c2)C(P2(=O)OCC(C)(C)CO2)=C(C)N1` (stereo not given) [Efonidipine], the “IC50 of cell viability” value was more than 46 µM.

Turning to `O=C(Nc1ccc(C(=O)O)c(O)c1)c1ccccc1` [CALCII BENZAMIDOSALICYLAS], the “IC50 of cell viability” value was more than 46 µM.

Take `CCOC(=O)Cn1cccc1-c1nc(-c2ccc(OC)cc2)c(-c2ccc(OC)cc2)s1` [PAMICOGREL]: the “IC50 of cell viability” value was more than 46 µM.

As for `NC(Cc1ccc(Oc2cc(I)c(O)c(I)c2)c(I)c1)C(=O)O` (stereo not given) [Triiodothyronine, reverse], the “IC50 of cell viability” value was more than 46 µM.

For the molecule `N=C(N)NCCCC(NC(=O)C1CCCN1C(=O)C1CSSCC(N)C(=O)NC(Cc2ccc(O)cc2)C(=O)NC(Cc2ccccc2)C(=O)NC(CCC(N)=O)C(=O)NC(CC(N)=O)C(=O)N1)C(=O)NCC(N)=O` (stereo not given) [[8-Arginine]vasopressin], the “IC50 of cell viability” value was more than 46 µM.

On to `CC[NH+](CC)CCOC(=O)c1ccc(N)cc1Cl` [CHLOROPROCAINE HYDROCHLORIDE], for which the “IC50 of cell viability” value was more than 46 µM.

Take `CC(=O)N(CC(O)CO)c1c(I)c(C(=O)NCCO)c(I)c(C(=O)NCC(O)CO)c1I` (stereo not given) [Ioxilan]: the “IC50 of cell viability” value was more than 46 µM.

`O=[S+]([O-])(O)C(F)(F)C(F)(F)C(F)(F)C(F)(F)C(F)(F)C(F)(F)C(F)(F)C(F)(F)F` [Perfluorooctane sulfonic acid]: the “IC50 of cell viability” value was more than 46 µM.

Turning to `CC1(C)CC/C(=C\c2ccc(Cl)cc2)C1(O)Cn1cncn1` (stereo not given) [Triticonazole], the “IC50 of cell viability” value is more than 46 µM.

Consider `CCCCCCCCCCCCCCCCCCOP(=O)([O-])OC1CC[N+](C)(C)CC1` [Perifosine], for which the “IC50 of cell viability” value is more than 46 µM.

On to `CCNC[C@H](O)c1cccc(O)c1` [Etilefrine hydrochloride], for which the “IC50 of cell viability” value is more than 46 µM.

`CC(C)=O` [Acetone]: the “IC50 of cell viability” value was more than 46 µM.

As to `CCN(CC)C(=O)c1cccnc1` [Nikethamide], the “IC50 of cell viability” value was more than 46 µM.

Take `[H][C@](C)(O)[C@@]1([H])C(=O)[N@]2C(C([O-])=O)=C(SC3CN4C=NC=[N+]4C3)[C@@]([H])(C)C12[H]` (stereo not given in full) [Biapenem]: the “IC50 of cell viability” value was more than 46 µM.

Take `C[C@H]\1C[C@H]2[C@H]3CC[C@](O)(C(=O)CO)[C@]3(C)C[C@@H](O)[C@@H]2[C@]4(C)\C=C/C(=O)/C=C14` [Methylprednisolone, 6-alpha]: the “IC50 of cell viability” value was more than 46 µM.

Regarding `CCN1\C=C(\C(O)=O)C(=O)C2=C1N=C(N=C2)N3CCCC3` [Piromidic acid], the “IC50 of cell viability” value is more than 46 µM.

`CC(=O)[C@H]1CC[C@H]2C3CC=C4C[C@@H](O)CC[C@]4(C)C3CC[C@]12C` (stereo not given in full) [Pregnenolona]: the “IC50 of cell viability” value is more than 46 µM.

Consider `N=C(N)c1ccc(/C=C/c2ccc(C(=N)N)cc2O)cc1` [HYDROXYSTILBAMIDINE ISETHIONATE], for which the “IC50 of cell viability” value is more than 46 µM.

Consider `C[N+]1(C)CCCCC1COC(=O)C(O)(c1ccccc1)c1ccccc1` (stereo not given) [BEVONIUM METHYLSULFATE], for which the “IC50 of cell viability” value is more than 46 µM.

Regarding `CC1(C)SC2C(NC(=O)C(c3ccccc3)S(=O)(=O)[O-])C(=O)N2C1C(=O)[O-]` (stereo not given) [SULBENICILLIN DISODIUM], the “IC50 of cell viability” value is more than 46 µM.

Turning to `CC(=O)O[C@]1(C(C)=O)CCC2C3CCC4=CC(=O)CCC4(C)C3(F)C(O)CC21C` (stereo not given in full) [Flurogestone acetate], the “IC50 of cell viability” value is more than 46 µM.

Turning to `O=[N+]([O-])c1ccc([As](=O)(O)O)cc1` [NITARSONE], the “IC50 of cell viability” value is more than 46 µM.

As for `C[C@H](C(=O)[O-])c1cccc(Oc2ccccc2)c1.C[C@H](C(=O)[O-])c1cccc(Oc2ccccc2)c1.O.O.[Ca+2]` [Fenoprofen calcium salt dihydrate], the “IC50 of cell viability” value is more than 46 µM.

`O=C1NC(=O)[C@@]2(CCOc3ccc(F)cc32)N1` [Sorbinil]: the “IC50 of cell viability” value is more than 46 µM.

For the molecule `CC1=CC2=C(O1)C(=C3OC(=O)\C=C(C)/C3=C2)C` [Trioxsalen], the “IC50 of cell viability” value was more than 46 µM.

With `CC1(C)O[C@@H]2C[C@H]3[C@@H]4C[C@H](F)C/5=C/C(=O)/C=C\[C@]5(C)[C@@]4(F)[C@@H](O)C[C@]3(C)[C@@]2(O1)C(=O)CO` [Fluocinolone acetonide], the “IC50 of cell viability” value was more than 46 µM.

For the molecule `CC(N)Cc1ccc2c(c1)OCO2` (racemic) [(±)-3,4-Methylenedioxyamphetamine hydrochloride], the “IC50 of cell viability” value was more than 46 µM.

On to `N=C(N)NCCC[C@H](N)C(=O)O` [L-Arginine], for which the “IC50 of cell viability” value is more than 46 µM.

Take `C=CC[N+]1([C@H]2C[C@H]3[C@@H]4CC[C@H]5C[C@H](O)[C@@H](N6CCOCC6)C[C@]5(C)[C@H]4CC[C@]3(C)[C@H]2OC(C)=O)CCCC1` [ROCURONIUM BROMIDE]: the “IC50 of cell viability” value is more than 46 µM.

In the case of `C/C1=C2/N=C(C=C3N=C(/C(C)=C4\[N-][C@@H]([C@H](CC(N)=O)[C@]4(C)CCC(=O)NC[C@@H](C)OP(=O)([O-])O[C@@H]4[C@@H](O)[C@H](n5cnc6cc(C)c(C)cc65)O[C@@H]4CO)[C@@]4(C)N=C1[C@H](CCC(N)=O)[C@@]4(C)CC(N)=O)[C@H](CCC(N)=O)C3(C)C)[C@@H](CCC(N)=O)[C@@]2(C)CC(N)=O.[CH3-].[Co+3]` [Mecobalamin], the “IC50 of cell viability” value is more than 46 µM.

For `O=C(Nc1ccc([S+](=O)([O-])N2CCOCC2)cc1)c1cc(Cl)ccc1N[S+](=O)([O-])c1ccc(Cl)s1` [Ataciguat], the “IC50 of cell viability” value is more than 46 µM.

As for `C[C@]12CCC3C(CCC4=C(Cl)C(=O)CC[C@@]43C)C1CCC2O` (stereo not given in full) [Clostebol], the “IC50 of cell viability” value was more than 46 µM.

For `CC(=O)[C@]1(O)CCC2C3/C=C(Cl)\C4=C\C(=O)C5CC5[C@@]4(C)C3CC[C@@]12C` (stereo not given in full) [CYPROTERONE], the “IC50 of cell viability” value was more than 46 µM.

For the molecule `O=c1n(Cl)c(=O)n(Cl)c(=O)n1Cl` [Symclosene], the “IC50 of cell viability” value was more than 46 µM.

Consider `CC(=O)OCC(=O)[C@@]1(O)CCC2C3CCC4=CC(=O)CC[C@]4(C)C3=CC[C@@]21C` (stereo not given in full) [ANECORTAVE ACETATE], for which the “IC50 of cell viability” value is more than 46 µM.

`O=C(NC1N=C(c2ccccc2F)c2cccc3c2N(CC3)C1=O)c1cc2ccccc2[nH]1` (stereo in doubt): the “IC50 of cell viability” value is more than 46 µM.

For `CCC(C)CCCCC(=O)N[C@@H](CC[NH3+])C(=O)N[C@H](C(=O)N[C@@H](CC[NH3+])C(=O)N[C@H]1CCNC(=O)C([C@@H](C)O)NC(=O)[C@@H](CCN)NC(=O)[C@H](CCN)NC(=O)[C@H](CC(C)C)NC(=O)[C@@H](CC(C)C)NC(=O)[C@H](CCN)NC1=O)[C@@H](C)O` (stereo not given in full) [Polymyxin E1], the “IC50 of cell viability” value was more than 46 µM.

As for `[O-]C(=O)C/1=C(/CS[C@@H]2[C@H](NC(=O)C[N]3C=NN=N3)C(=O)N12)CSC4=NN=CS4` [CEFTEZOLE SODIUM], the “IC50 of cell viability” value is more than 46 µM.

In the case of `CC(=O)Oc1c(C)c(C)c2c(c1C)CC[C@@](C)(CCC[C@H](C)CCC[C@H](C)CCCC(C)C)O2` [Vitamin E acetate], the “IC50 of cell viability” value was more than 46 µM.

Regarding `CCCNC(C)(C)COC(=O)c1ccccc1` [Meprylcaine hydrochloride], the “IC50 of cell viability” value is more than 46 µM.

Turning to `Nc1cc(-c2ccncc2)c[nH]c1=O` [Amrinone], the “IC50 of cell viability” value is more than 46 µM.

Consider `O=C(Nc1ccccc1)OC[C@H](CN1CCCCC1)OC(=O)Nc1ccccc1` [Diperodon hydrochloride], for which the “IC50 of cell viability” value was more than 46 µM.

As to `CC(C)=CCC/C(C)=C\CC/C(C)=C\CC/C(C)=C\CC1=C(C)C(=O)c2ccccc2C1=O` [Vitamin K2], the “IC50 of cell viability” value is more than 46 µM.

For `O=C(/C=C/c1ccccc1)OCc1ccccc1` [BENZYL CINNAMATE], the “IC50 of cell viability” value was more than 46 µM.

As to `OCc1ccc(Cl)cc1Cl` [DICHLOROBENZYL ALCOHOL], the “IC50 of cell viability” value is more than 46 µM.

As to `Nc1ccc(C(=O)NCC(=O)O)cc1` [Aminohippuric acid], the “IC50 of cell viability” value was more than 46 µM.

For the molecule `[Na+].CCCC(C)C1(CC=C)C(=O)N\C(=N/C1=O)[S-]` (stereo not given) [THIAMYLAL SODIUM], the “IC50 of cell viability” value is more than 46 µM.

Turning to `C#C[C@]1(O)CC[C@H]2[C@@H]3CCc4cc(O)ccc4[C@H]3CC[C@@]21C` [ETHINYL ESTRADIOL], the “IC50 of cell viability” value is more than 46 µM.

Take `N=C(N)N/N=C/c1c(Cl)cccc1Cl` [GUANABENZ]: the “IC50 of cell viability” value was more than 46 µM.

With `O=C(NC(=O)c1c(F)cccc1F)Nc1ccc(Cl)c(Oc2ncc(C(F)(F)F)cc2Cl)c1` [Fluazuron], the “IC50 of cell viability” value was more than 46 µM.

Regarding `COc1cc(N)c(Cl)cc1C(=O)N[C@@H]1CCN(CCCOc2ccc(F)cc2)C[C@H]1OC` [Cisapride], the “IC50 of cell viability” value is more than 46 µM.

Turning to `C[C@]12N[C@H](Cc3ccccc31)c1ccccc12` [(+)-MK 801], the “IC50 of cell viability” value is more than 46 µM.

`CN(C)CC/C=C1\c2ccccc2COc2ccc(CC(=O)O)cc21` [OLOPATADINE HYDROCHLORIDE]: the “IC50 of cell viability” value is more than 46 µM.

`CCN(CC)[C@@H](C)CN1c2ccccc2Sc2ccccc21` [Ethopropazine hydrochloride]: the “IC50 of cell viability” value is more than 46 µM.

On to `CCn1ccnc1CC1COc2ccccc2O1` (stereo not given) [IMILOXAN], for which the “IC50 of cell viability” value is more than 46 µM.

Take `NCCCCC(N)C(=O)O` (stereo not given) [Lysine]: the “IC50 of cell viability” value was more than 46 µM.
